Measured values published in US20060228412A1, “(-)-Hydroxycitric acid for delaying gastric emptying” (priority 2003, published 2006).

Experiments:
[1] = Multi-week pilot open clinical weight loss trial with extremely obese patients; format: in vivo, human
Text: In the present studies, data on human usage emerged from a multi-week pilot open clinical weight loss trial with extremely obese patients which was undertaken to gauge the effects of a pouch delivery form of a potassium salt of HCA under the normal circumstances faced in clinical practice with this patient population. Sixteen patients were enrolled, three of whom were diabetics on medications and several others who were suspected of suffering from insulin resistance. The patients ingested 3-4 grams of HCA (in the form of the potassium salt) per day in two divided doses. Aside from being informed that they must eat a carbohydrate-containing meal within one hour of taking the HCA and that they should avoid eating late in the day, they were not instructed to follow any special diet or exercise plan outside their normal habits and no caloric restriction was imposed. This particular form of potassium HCA delivery typically was mixed into water or juice and consumed at mid-morning and mid-afternoon. The delivery was a water-soluble immediate release form. It was a pre-commercial preparation and nearly all of the patients complained regarding the inconvenience and poor taste of the product, albeit there were no other issues of tolerability.
A number of patients continued on the program for 6 weeks. However, most patient data was good for only 3 weeks because two of the diagnosed diabetics experienced severe hypoglycemic reactions. […] Two patients subsequently were placed on phentermine. […] The average weight loss over the 3 week period for these 14 patients was approximately 3.1 pounds per person per week. […] At therapeutically effective dosages, HCA probably should be used with diabetic populations only under a physician's care.

[2] = Blood glucose after HCA meal replacement releasing only in the small intestine; format: in vivo, human
Text: In Example 1, the HCA was delivered in an immediate-release preparation. Our unexpected findings with regard to blood sugar led to the hypothesis that a relatively large dose of HCA might affect blood sugar levels in an individual whose blood sugar is in the low normal range. A dose of 1.5 grams HCA derived from potassium HCA and delivered in a special coated form designed to bypass interaction with stomach acids and to release only in the higher pH of the small intestine was used. A potassium HCA salt granulate was prepared according to Example 1 found in U.S. Pat. No. 6,447,807 and delivered via a dry powdered meal replacement designed to be mixed with liquid to provide 1.5 grams of HCA per 350 calories plain (mixed with water) or approximately 500 calories with milk. […] The subject ate a 500 calorie breakfast consisting the experimental HCA meal replacement. Two hours after this meal, subject's blood glucose level had dropped to 77 mg/dL. […] This finding seemed paradoxical in that the outstanding metabolic effect, which might be thought to indicate blood levels of the drug, was not matched by even a normal level of feelings of fullness. This implied that at least part of the satiation induced by HCA comes about prior to entry of the compound into the blood. […]

[3] = Capsaicin-HCA interaction satiety test; format: in vivo, human; conditions: 5 individuals, approximately 2 grams in water about an hour before a meal; before red pepper sauce
Text: The meal itself began with a soup course. […] At this point, bottles of red pepper sauce were supplied and the sauce was applied liberally. […] As is true of Example 3, this provides indirect evidence that HCA acts upon a CCK-related mechanism in inducing satiety.

[4] = Immediacy of HCA-induced satiety, lemonade-like drinks prior to a meal; format: in vivo, human; conditions: 5 individuals, approximately 2 grams in sweetened lemonade-like drinks, 16-24 ounces, about 200 calories
Procedure: To test this theory, and the palatability of an HCA salt when mixed with various flavors, a study was conducted in which 5 individuals consumed approximately 2 grams potassium HCA mixed in sweetened lemonade-like drinks prior to a meal. Consumption of the drinks took place over the course of approximately one half hour and involved 16-24 ounces of fluid, but only about 200 calories.

[5] = cited from earlier work
[6] = at the end of 80 days; cited from earlier work
[3H]-5-HT uptake = isolated rat brain cortical slices; cited from earlier work
[7] = mice on a 10% sucrose diet; cited from earlier work

Row | SMILES | Average weight loss ([1]; 3 week period, 14 patients, 3-4 grams HCA per day in two divided doses, immediate release pouch form) | Blood pressure ([1]; eight patients with hypertension) | Effect on blood sugar in diabetics ([1]; immediate release format, two diagnosed diabetics had severe hypoglycemic reactions) | Weight loss of one patient ([1]; over 10 weeks) | Appetite suppression ([1]; several patients) | Anorectic action / feelings of fullness ([2]; delivery to the small intestine, by-passing the stomach) | Blood glucose level ([2]; two hours after 500 calorie meal with 1.5 grams HCA, coated form released in small intestine, fasting level before 85 mg/dL, one subject) | Feeling of fullness [3] | Satiety [4] | Reduction in food consumption ([5]; experimental animals fed a high-sugar diet, single large oral dose or two divided oral doses) | Minimum effective dose, once per day ([5]; oral, once per day) | Minimum effective dose, twice per day ([5]; oral, twice per day) | Net reduction in food intake compared with controls [6] | Reduction in weight gain [6] | [3H]-5-HT uptake ([3H]-5-HT uptake) | Leptin/white adipose tissue ratio compared with control [7] | Serum insulin compared with control [7] | Serum leptin compared with control [7]
1 | O=C([O-])CC(O)(C(=O)[O-])C(O)C(=O)[O-].[K+].[K+].[K+] (stereo not drawn) [potassium HCA] | approximately 3.1 pounds per person per week | normalize blood pressure | strong hypoglycemic effect | 32 pounds | good appetite suppression | blunt the anorectic actions | 77 mg/dL | felt full very soon | satiated soon after the meal began | – | – | – | – | – | – | – | – | –
2 | O=C(O)CC(O)(C(=O)O)C(O)C(=O)O (single isomer, unassigned; (-)) [HCA, (−)-hydroxycitric acid] | – | – | – | – | – | – | – | – | – | ≥ 10% | 2.63 mmol/kg | 0.33 mmol/kg | 4% | 78% | inhibit | lower | lower | lower
